According to patent US20240108684A1, “DOSING REGIMENS FOR TREATMENT OF FUNGAL INFECTIONS” (priority 2016, published 2024):
Like-named read-outs stand apart in the source and are kept apart here. *1 amine or outer side, *2 acyl side, *3 side chain or, on linkers, in order; H or OH if unused. Where a SMILES comes first, the peptide text is derived from it. Bridges are numbered along the chain shown (N, C = ends). [ ]: non-standard residue; d: D form. The star is where a group is joined. Orn(4R-OH,5R-OCH2CH2NMe3+) = C[N+](C)(C)CCO[C@@H](N[*:3])[C@H](O)C[C@H](N[*:1])C(=O)[*:2]; pTerphenylCO(4''-OnC5H11) = CCCCCOc1ccc(-c2ccc(-c3ccc(C(=O)*)cc3)cc2)cc1; hTyr(3S-OH,4S-OH) = N[C@H](C(=O)O)[C@H](O)[C@@H](O)c1ccc(O)cc1; Pro(3S-OH,4S-Me) = C[C@H]1CN[C@H](C(=O)O)[C@H]1O; Hyp = O=C(O)[C@@H]1C[C@@H](O)CN1

What was measured:
[1] = Single dose plasma PK after IP doses; conditions: mouse, 64 mg/kg
[2] = Solubility of test articles in vehicle, visual observation; conditions: 10% DMSO/1% Tween 20 in 0.9% NaCl; 0.3, 1 and 3 mg/mL
Description: Amphotericin B and fluconazole were in powder form. Amphotericin B was dissolved in 0.9% NaCl. Fluconazole was dissolved in water (WFI: water for injection).

C. albicans [3] = test: Mutant prevention concentration (MPC); assay type: cell-based, Candida albicans
From the text: As used herein, the term “mutant prevention concentration” or “MPC” refers to the concentration of a drug sufficient to suppress the development of all but very rare spontaneous mutants. The range of drug concentrations between the MIC and MPC represents a mutant selection window wherein de novo mutants are most likely to occur. Therapeutic regimens that maximize the duration of drug concentrations in excess of the MPC thereby minimize the potential for resistance development during the course of therapy.
Selection of resistance strains in vivo predominantly occurs over a range of drug concentrations falling between the MIC and MPC values. Dosing paradigms that result in plasma drug concentrations in excess of the MPC are therefore more desirable and effective in preventing the development of de novo mutants during the course of therapy (see, e.g., Drlica et al., J. Antimicrob. Chemother. 52:11-17, 2003). Currently approved treatment regimens for caspofungin, micafungin, and anidulafungin involve once-daily dosing at levels such that the Cmax is unlikely to be equivalent to or exceed the MPC at any point during treatment.

[4] = system: Aspergillus fumigatus (ATCC 13073); test: Neutropenic mouse model of aspergillosis, survival; assay type: in vivo, mice; conditions: 2 mg/kg IV or IP one dose; 10 days; P<0.05
[5] = Multiple ascending dose IV study in healthy adult subjects (safety, PK); assay type: in vivo, human; conditions: for Accumulation Ratio AUC0-168 / Accumulation Ratio Cmax: last/first dose; for Cmax / AUC(0-t): human, plasma, intravenous; for AUC(0-t): read-out: AUC0-168
Description: A second study of CD101 administered by IV injection to healthy adult subjects was also performed. In this study, subjects in 3 cohorts of 8 subjects (6 active, 2 placebo) each were randomized to receive multiple IV doses of CD101 or placebo (normal saline) infused over 60 (±5) minutes. Dose levels of CD101 assessed follow an ascending multiple-dose regimen (100 mg×2 doses, 200 mg×2 doses, or 400 mg×3 doses).
Pharmacokinetics were determined by analyzing plasma and urine samples for concentration of CD101 obtained from subjects who received CD101 in each cohort at various time points after administration of CD101.

C. albicans [6] = test: Neutropenic murine disseminated candidiasis model, PK/PD; conditions: for 1 log kill dose / Static Dose: single IP dose
C. albicans (R357) = test: Disseminated infection model with C. albicans R357, kidney fungal counts; assay type: in vivo, ICR mice
[7] = 100 mg x2, 200 mg x2 or 400 mg x3 doses IV

CCCCCOc1ccc(-c2ccc(-c3ccc(C(=O)N[C@H]4C[C@@H](O)[C@@H](OCC[N+](C)(C)C)NC(=O)[C@@H]5[C@@H](O)[C@@H](C)CN5C(=O)[C@H]([C@@H](C)O)NC(=O)[C@H]([C@H](O)[C@@H](O)c5ccc(O)cc5)NC(=O)[C@@H]5C[C@@H](O)CN5C(=O)[C@H]([C@@H](C)O)NC4=O)cc3)cc2)cc1 [CD101] ({pTerphenylCO(4''-OnC5H11)}-[Orn(4R-OH,5R-OCH2CH2NMe3+)]T[Hyp][hTyr(3S-OH,4S-OH)]T[Pro(3S-OH,4S-Me)]; lactam 1-C) gave an AUC(0-inf) [1] of 93 to 4050 µg·h/mL, a Cmax [1] of 2600 to 77000 ng/mL and a half-life [1] of 28 to 41 h. For the same compound, the Solubility [2] was “S”, the MPC (C. albicans [3]) was 16 µg/mL and the Survival versus vehicle [4] was “significantly longer survival than vehicle”. For the same compound, the “Accumulation Ratio AUC0-168” value ([5]; 100 mg (Day 1/Day 8)) was 1.30, the “Accumulation Ratio Cmax” value ([5]; 100 mg (Day 1/Day 8)) was 1.14 and the “Drug-related AEs from laboratory abnormalities” value [5, 7] was “no drug-related AEs resulting from clinically significant hematology or clinical chemistry laboratory abnormalities at any dose”. For the same compound, the “ECG, vital signs, physical exam” value [5, 7] was “no safety issues related to ECGs, vital signs, or physical exam findings”, the “Serious and severe adverse events” value [5, 7] was “no SAEs or severe AEs” and the “Severity and resolution of AEs” value [5, 7] was “majority of AEs were mild, and all related AEs completely resolved by the end of the study”. For the same compound, the “Accumulation Ratio AUC0-168” value ([5]; 200 mg (Day 1/Day 8)) was 1.43, the “Accumulation Ratio Cmax” value ([5]; 200 mg (Day 1/Day 8)) was 1.17 and the “Accumulation Ratio AUC0-168” value ([5]; 400 mg (Day 1/Day 8/Day 15)) was 1.55. For the same compound, the “Accumulation Ratio Cmax” value ([5]; 400 mg (Day 1/Day 8/Day 15)) was 1.34, the Cmax ([5]; 100 mg, 100 mg weekly, Day 1) was 5670 ng/mL and the AUC(0-t) ([5]; 100 mg, 100 mg weekly, Day 1) was 299 µg·h/mL. For the same compound, the Cmax ([5]; 100 mg, 100 mg weekly, Day 8) was 6490 ng/mL, the AUC(0-t) ([5]; 100 mg, 100 mg weekly, Day 8) was 390 µg·h/mL and the Cmax ([5]; 200 mg, 200 mg weekly, Day 1) was 10600 ng/mL. It also gave an AUC(0-t) ([5]; 200 mg, 200 mg weekly, Day 1) of 570 µg·h/mL, a Cmax ([5]; 200 mg, 200 mg weekly, Day 8) of 12400 ng/mL and an AUC(0-t) ([5]; 200 mg, 200 mg weekly, Day 8) of 813 µg·h/mL. The Cmax ([5]; 400 mg, 400 mg weekly, Day 1) was 22700 ng/mL, the AUC(0-t) ([5]; 400 mg, 400 mg weekly, Day 1) was 1190 µg·h/mL and the Cmax ([5]; 400 mg, 400 mg weekly, Day 15) was 30500 ng/mL. The AUC(0-t) ([5]; 400 mg, 400 mg weekly, Day 15) was 1840 µg·h/mL, the Safety and tolerability ([5]; multiple doses up to 400 mg) was “safe and well tolerated” and the Infusion reactions ([5]; primarily 400 mg cohort, most common with third dose) was “Four subjects in the CD101 group experienced mild, transient infusion reactions”. For the same compound, the “1 log kill Ave 24 h AUC/MIC” value (C. albicans [6]; C. albicans 98-17) was 490, the “Stasis Ave 24 h AUC/MIC” value (C. albicans [6]; C. albicans 98-17) was 274 and the “1 log kill dose” value (C. albicans [6]; C. albicans 98-17, 7 days) was 2.73 mg/kg. For the same compound, the “Static Dose” value (C. albicans [6]; C. albicans 98-17, 7 days) was 1.34 mg/kg, the “1 log kill Ave 24 h AUC/MIC” value (C. albicans [6]; C. albicans 98-210) was 1574 and the “Stasis Ave 24 h AUC/MIC” value (C. albicans [6]; C. albicans 98-210) was 868. The “1 log kill dose” value (C. albicans [6]; C. albicans 98-210, 7 days) was 2.28 mg/kg, the “Static Dose” value (C. albicans [6]; C. albicans 98-210, 7 days) was 1.06 mg/kg and the “1 log kill Ave 24 h AUC/MIC” value (C. albicans [6]; C. albicans 580) was 1429. The “Stasis Ave 24 h AUC/MIC” value (C. albicans [6]; C. albicans 580) was 948, the “1 log kill dose” value (C. albicans [6]; C. albicans 580, 7 days) was 2.03 mg/kg and the “Static Dose” value (C. albicans [6]; C. albicans 580, 7 days) was 1.20 mg/kg. The “1 log kill Ave 24 h AUC/MIC” value (C. albicans [6]; C. albicans K-1) was 6435, the “Stasis Ave 24 h AUC/MIC” value (C. albicans [6]; C. albicans K-1) was 3426 and the “1 log kill dose” value (C. albicans [6]; C. albicans K-1, 7 days) was 5.26 mg/kg. The “Static Dose” value (C. albicans [6]; C. albicans K-1, 7 days) was 2.52 mg/kg, the Maximal kill (C. albicans [6]; C. albicans and C. glabrata strains, 0.016-64 mg/kg once IP, 7 days) was “over 2 log10 CFU/kidney” and the “Antimicrobial effect versus vehicle (kidney fungal counts)” value (C. albicans (R357); 3, 10, and 30 mg/kg IP once, 48 and 72 hr after infection) was “Significant antimicrobial effects (P<0.05)”. The “Reduction in fungal counts” value (C. albicans (R357); all CD101 groups (3, 10, 30 mg/kg IP), 48 and 72 hr) was “two log reduction”.
